PubChem BioAssay (NCI)
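Exposure lasted 48 hours, with cells grown in 96-well plates and compounds tested at five concentrations. GI50 is the concentration that inhibits growth by half. Definition used: TGI = concentration required for complete inhibition of growth.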

Key:
Experiment in all cases: NCI tumour cell line growth inhibition, 48 h
DU-145 prostate = system: DU-145 prostate
DLD-1 colon = system: DLD-1 colon
P388 leukemia = system: P388 leukemia
P388/ADR leukemia = system: P388/ADR leukemia
LXFL 529 NSCLC = system: LXFL 529 NSCLC
BT-549 breast = system: BT-549 breast
MDA-N = system: MDA-N

SMILES | TGI (DU-145 prostate) [µM] | TGI (DLD-1 colon) [µM] | TGI (P388 leukemia) [µM] | TGI (P388/ADR leukemia) [µM] | TGI (MDA-N) [µM] | also measured
O=C(Nc1cccc(-n2ccc3c(NC(=O)c4ccccc4)nccc32)c1)Nc1cc(C(F)(F)F)cc(C(F)(F)F)c1 | 7.97 |  |  |  |  | GI50 (DU-145 prostate): 1.68 µM
CC(NC(=O)C(C)NC(=O)C(N)CCP(C)(=O)O)C(=O)O (stereo unspecified) |  | > 100 | > 31.6 | > 100 |  | 
Nc1nc(SCc2ccc([N+](=O)[O-])cc2)nc2c1ncn2C1OC(COP(=O)(O)O)C(O)C1O (stereo unspecified) |  | > 100 |  |  |  | TGI (LXFL 529 NSCLC): > 100 µM
N[C@H](C(=O)O)[C@H]1ON=C(Cl)[C@@H]1O |  | > 550 | 17.5 | 46.4 |  | 
CCOP(=O)(OCC)/C(C#N)=C/c1cn(C)cn1 |  |  |  |  | > 100 | TGI (BT-549 breast): > 100 µM
O=S(=O)(CCBr)CCBr |  | 8.66 | 5.67 | 12.1 |  | 
CC1=Nc2nc(Cl)cn2C(=O)C1(Cl)Cl | > 10 |  |  |  | > 10 | 
Cc1ccc(N=N/C(=N\NC(=O)c2ccc(C)cc2)c2ccc(N(CCC#N)CCC#N)cc2C)cc1 | > 100 |  |  |  | > 100 | 
C[Si](C)(OCCS(=O)(=O)O)C1(Cc2cccc3ccccc23)S(=O)(=O)OCCOS1(=O)=O | 37.4 |  |  |  | 41.9 | TGI (BT-549 breast): 33.5 µM
Cc1ccc(N2Cc3c(ccc4ccccc34)OP2(=O)Oc2ccc(Cl)c(C)c2)cc1 (stereo unspecified) |  | > 100 | > 100 | > 100 |  | 
COc1ccc(-n2cnnc2-c2nsc3ccccc23)cc1 |  |  |  |  |  | TGI (LXFL 529 NSCLC): > 100 µM
